Laboratory results published in US5298492A, “Diamino acid derivatives as antihypertensives” (Schering Corporation, priority 1992, dated 1994).

Assays:
[1] = target: ACE (angiotensin converting enzyme) (Homo sapiens, UniProt P12821); experiment: ACE inhibition IC50; assay type: biochemical
[2] = target: NEP (neutral endopeptidase) (Homo sapiens, UniProt P08473); experiment: NEP inhibition IC50; assay type: biochemical
Sequence of NEP (neutral endopeptidase) (P08473 whole entry, species assumed): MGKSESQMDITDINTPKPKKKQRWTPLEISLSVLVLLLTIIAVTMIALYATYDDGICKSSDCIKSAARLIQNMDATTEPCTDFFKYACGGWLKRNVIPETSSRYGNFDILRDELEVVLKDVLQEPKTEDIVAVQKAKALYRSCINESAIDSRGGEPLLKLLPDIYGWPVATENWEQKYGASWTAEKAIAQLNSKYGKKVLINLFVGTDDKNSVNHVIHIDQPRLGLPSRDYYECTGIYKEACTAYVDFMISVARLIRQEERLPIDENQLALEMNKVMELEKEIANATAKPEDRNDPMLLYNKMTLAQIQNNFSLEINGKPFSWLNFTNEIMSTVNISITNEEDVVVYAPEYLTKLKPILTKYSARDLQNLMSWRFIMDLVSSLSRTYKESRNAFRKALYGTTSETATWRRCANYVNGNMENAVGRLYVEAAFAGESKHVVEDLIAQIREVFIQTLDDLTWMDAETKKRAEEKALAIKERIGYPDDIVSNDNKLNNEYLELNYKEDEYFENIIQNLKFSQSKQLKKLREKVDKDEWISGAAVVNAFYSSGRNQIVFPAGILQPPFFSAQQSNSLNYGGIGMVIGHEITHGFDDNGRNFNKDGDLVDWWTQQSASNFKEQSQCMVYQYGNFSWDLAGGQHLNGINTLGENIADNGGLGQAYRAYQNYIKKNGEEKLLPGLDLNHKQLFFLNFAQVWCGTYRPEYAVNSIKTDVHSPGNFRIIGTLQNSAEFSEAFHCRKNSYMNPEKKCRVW

Sequence of ACE (angiotensin converting enzyme) (P12821 30-1306, species assumed): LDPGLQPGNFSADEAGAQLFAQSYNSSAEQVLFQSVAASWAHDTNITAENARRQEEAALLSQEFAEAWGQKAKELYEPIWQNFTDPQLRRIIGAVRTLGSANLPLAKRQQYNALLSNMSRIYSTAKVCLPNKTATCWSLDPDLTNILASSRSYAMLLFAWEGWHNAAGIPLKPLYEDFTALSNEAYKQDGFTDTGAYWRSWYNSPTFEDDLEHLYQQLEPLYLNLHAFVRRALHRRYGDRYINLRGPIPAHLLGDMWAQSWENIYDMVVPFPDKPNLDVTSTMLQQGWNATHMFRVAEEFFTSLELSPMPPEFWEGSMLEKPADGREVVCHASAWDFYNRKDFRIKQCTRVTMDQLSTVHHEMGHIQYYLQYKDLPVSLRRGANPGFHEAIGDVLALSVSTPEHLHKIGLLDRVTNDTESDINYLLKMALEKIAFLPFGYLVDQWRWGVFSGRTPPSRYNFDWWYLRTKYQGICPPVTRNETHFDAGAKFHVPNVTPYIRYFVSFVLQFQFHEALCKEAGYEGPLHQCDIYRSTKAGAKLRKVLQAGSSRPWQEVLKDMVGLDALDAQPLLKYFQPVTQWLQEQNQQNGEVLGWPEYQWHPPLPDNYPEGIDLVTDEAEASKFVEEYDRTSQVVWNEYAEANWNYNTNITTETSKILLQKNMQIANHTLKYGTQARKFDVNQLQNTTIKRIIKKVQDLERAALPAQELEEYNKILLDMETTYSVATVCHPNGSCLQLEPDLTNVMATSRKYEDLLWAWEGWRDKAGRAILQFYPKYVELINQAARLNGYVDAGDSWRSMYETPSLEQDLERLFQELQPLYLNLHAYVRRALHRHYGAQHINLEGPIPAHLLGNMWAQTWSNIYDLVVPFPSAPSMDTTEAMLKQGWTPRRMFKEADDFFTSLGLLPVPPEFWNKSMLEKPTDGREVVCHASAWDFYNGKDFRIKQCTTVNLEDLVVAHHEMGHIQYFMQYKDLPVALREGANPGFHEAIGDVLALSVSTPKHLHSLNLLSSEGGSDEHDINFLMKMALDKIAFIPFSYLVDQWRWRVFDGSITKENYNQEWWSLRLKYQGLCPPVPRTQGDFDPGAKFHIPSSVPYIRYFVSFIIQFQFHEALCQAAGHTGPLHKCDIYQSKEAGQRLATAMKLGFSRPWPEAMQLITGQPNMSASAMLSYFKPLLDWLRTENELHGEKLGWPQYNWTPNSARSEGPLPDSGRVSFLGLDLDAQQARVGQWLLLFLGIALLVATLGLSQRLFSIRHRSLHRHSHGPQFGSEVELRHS

IC50 [1] [nM]	IC50 [2] [nM]	Compound
> 1000	> 300	CCOC(=O)[C@H](CNC(=O)[C@H](CCCCNC(=O)OCc1ccccc1)NS(C)(=O)=O)N[C@@H](Cc1ccccc1)C(=O)N[C@@H](Cc1ccc(O)cc1)C(=O)O
> 1000	300	CCOC(=O)[C@H](CNC(=O)[C@H](CCCCN)NS(C)(=O)=O)N[C@@H](Cc1ccccc1)C(=O)N[C@@H](Cc1ccc(O)cc1)C(=O)O
50	38	CCOC(=O)[C@H](Cc1ccc(O)cc1)NC(=O)[C@H](Cc1ccccc1)N[C@@H](CNC(=O)[C@H](CCCCNC(=O)OCc1ccccc1)NS(C)(=O)=O)C(=O)O
650	40	CCOC(=O)[C@H](Cc1ccc(O)cc1)NC(=O)[C@H](Cc1ccccc1)N[C@@H](CNC(=O)[C@H](CCCCN)NS(C)(=O)=O)C(=O)O
175	68	CS(=O)(=O)N[C@@H](CCCCN)C(=O)NC[C@H](N[C@@H](Cc1ccccc1)C(=O)N[C@@H](Cc1ccc(O)cc1)C(=O)OCCc1ccccc1)C(=O)O
8	95	CCN=C(NCC)NCCCC[C@H](NS(C)(=O)=O)C(=O)NC[C@H](N[C@@H](Cc1ccccc1)C(=O)N[C@@H](Cc1ccc(O)cc1)C(=O)O)C(=O)O
9	18	CS(=O)(=O)N[C@@H](CCCCNC(=O)OCc1ccccc1)C(=O)NC[C@H](N[C@@H](Cc1ccccc1)C(=O)N[C@@H](Cc1ccc(O)cc1)C(=O)O)C(=O)O
15	25	CS(=O)(=O)Nc1cccc(C[C@H](NC(=O)[C@H](Cc2ccccc2)N[C@@H](CNC(=O)[C@H](CCCCN)NS(C)(=O)=O)C(=O)O)C(=O)O)c1
300	78	CCC[C@H](N[C@@H](CNC(=O)[C@H](CCCCNC(=O)OCc1ccccc1)NS(C)(=O)=O)C(=O)O)C(=O)N[C@@H](Cc1ccc(O)cc1)C(=O)OC
–	270	CCC[C@H](N[C@@H](CNC(=O)[C@H](CCCCN)NS(C)(=O)=O)C(=O)O)C(=O)N[C@@H](Cc1ccc(O)cc1)C(=O)OC
15	2	CCC[C@H](N[C@@H](CNC(=O)[C@H](CCCCNC(=O)OCc1ccccc1)NS(C)(=O)=O)C(=O)O)C(=O)N[C@@H](Cc1ccc(O)cc1)C(=O)O
50	35	CS(=O)(=O)N[C@@H](CCCCN)C(=O)NC[C@H](N[C@@H](Cc1ccccc1)C(=O)N[C@@H](Cc1ccc(O)cc1)C(=O)O)C(=O)O [drawing 100: R1=CH3SO2NH; R5=OH; R6=OH; Z=NH2]
65	30	O=C(CCCCCNC(=O)OCc1ccccc1)NC[C@H](N[C@@H](Cc1ccccc1)C(=O)N[C@@H](Cc1ccc(O)cc1)C(=O)O)C(=O)O [drawing 100: R1=H; R5=OH; R6=OH; Z=CbzNH]

The next lines start with the molecule.

Compound	IC50 [1] [nM]	IC50 [2] [nM]
CCC[C@H](N[C@@H](CNC(=O)[C@H](CCCCNC(=O)OCc1ccccc1)NS(C)(=O)=O)C(=O)O)C(=O)N[C@@H](Cc1cccc(NS(C)(=O)=O)c1)C(=O)OCC	400	70
CCC[C@H](N[C@@H](CNC(=O)[C@H](CCCCN)NS(C)(=O)=O)C(=O)O)C(=O)N[C@@H](Cc1cccc(NS(C)(=O)=O)c1)C(=O)O	40	200
CS(=O)(=O)N[C@@H](CCCCNC(=O)OCc1ccccc1)C(=O)NC[C@H](N[C@H](C(=O)N[C@@H](Cc1ccc(O)cc1)C(=O)O)C1CCCCC1)C(=O)O	250	> 300
CS(=O)(=O)N[C@@H](CCCCN)C(=O)NC[C@H](N[C@H](C(=O)N[C@@H](Cc1ccc(O)cc1)C(=O)O)C1CCCCC1)C(=O)O	121	> 300
CS(=O)(=O)N[C@@H](CCCCN)C(=O)NC[C@H](NC1(C(=O)N[C@@H](Cc2ccc(O)cc2)C(=O)O)CC1)C(=O)O	150	> 300
CS(=O)(=O)N[C@@H](CCCCN)C(=O)NC[C@H](NC1(C(=O)N[C@@H](Cc2ccc(O)cc2)C(=O)O)CCC1)C(=O)O	–	42
CS(=O)(=O)N[C@@H](CCCCN)C(=O)NC[C@H](NC1(C(=O)N[C@@H](Cc2ccc(O)cc2)C(=O)O)CCCC1)C(=O)O	45	35
CS(=O)(=O)N[C@@H](CCCCN)C(=O)NC[C@H](NC1(C(=O)N[C@@H](Cc2ccc(O)cc2)C(=O)O)CCCCC1)C(=O)O	–	190
COC(=O)[C@H](CNC(=O)[C@H](CCCCNC(=O)OCc1ccccc1)NS(C)(=O)=O)N[C@H](C(=O)N[C@@H](Cc1ccc(O)cc1)C(=O)O)C(C)C	> 1000	240
COC(=O)[C@H](CNC(=O)[C@H](CCCCN)NS(C)(=O)=O)N[C@H](C(=O)N[C@@H](Cc1ccc(O)cc1)C(=O)O)C(C)C	> 1000	> 300
CC(C)[C@H](N[C@@H](CNC(=O)[C@H](CCCCNC(=O)OCc1ccccc1)NS(C)(=O)=O)C(=O)O)C(=O)N[C@@H](Cc1ccc(O)cc1)C(=O)O	30	2
CC(C)[C@H](N[C@@H](CNC(=O)[C@H](CCCCN)NS(C)(=O)=O)C(=O)O)C(=O)N[C@@H](Cc1ccc(O)cc1)C(=O)O	50	7
CCC[C@H](N[C@@H](CNC(=O)[C@H](CCCCN)NS(C)(=O)=O)C(=O)O)C(=O)N[C@@H](Cc1ccc(O)cc1)C(=O)O	30	6
CS(=O)(=O)N[C@@H](CCCCN)C(=O)NC[C@H](NC(C(=O)N[C@@H](Cc1ccc(O)cc1)C(=O)O)C1CC1)C(=O)O (single isomer, unassigned) [listing 1 of 2 here]	15	40
CS(=O)(=O)N[C@@H](CCCCN)C(=O)NC[C@H](NC(C(=O)N[C@@H](Cc1ccc(O)cc1)C(=O)O)C1CC1)C(=O)O (single isomer, unassigned) [listing 2 of 2 here]	300	> 300
NCCCCCC(=O)NC[C@H](N[C@@H](Cc1ccccc1)C(=O)N[C@@H](Cc1ccc(O)cc1)C(=O)O)C(=O)O [drawing 100: R1=H; R5=OH; R6=OH; Z=NH2]	60	16
